Read-outs that look alike come from different tables or passages of the source.
Key:
Assay in all cases: biochemical
Parameters in all cases: KINOMEscan active site-directed competition binding assay (DiscoveRx), 456 kinases, per cent of control at 300 nM
Details in all cases: read-out: Percent of Control (%)
[1] = target: T1, ABL1(F317L)-phosphorylated (Homo sapiens, UniProt P00519, F317L)
T1 construct: phosphorylated
Method in brief: (§1)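 Values reflect active-site competition binding from a screen of 456 kinases, with test compounds at a fixed 300 nmol/L.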

ALK(L1196M) = ALK(L1196M) (Homo sapiens, UniProt Q9UM73, L1196M)
Method in brief: as §1

BMPR2 = BMPR2 (Homo sapiens, UniProt Q13873)
Method in brief: as §1

BTK = BTK (Homo sapiens, UniProt Q06187)
Method in brief: as §1

CAMK2D = CAMK2D (Homo sapiens, UniProt Q13557)
Method in brief: as §1

CAMK4 = CAMK4 (Homo sapiens, UniProt Q16566)
Method in brief: as §1

CDK9 = CDK9 (Homo sapiens, UniProt P50750)
Method in brief: as §1

FLT3(D835H) = FLT3(D835H) (Homo sapiens, UniProt P36888, D835H)
Method in brief: as §1

GRK7 = GRK7 (Homo sapiens, UniProt Q8WTQ7)
Method in brief: as §1

IRAK3 = IRAK3 (Homo sapiens, UniProt Q9Y616)
Method in brief: as §1

KIT(V559D,T670I) = KIT(V559D,T670I) (Homo sapiens, UniProt P10721, T670I/V559D)
Method in brief: as §1

LCK = LCK (Homo sapiens, UniProt P06239)
Method in brief: as §1

MAP3K2 = MAP3K2 (Homo sapiens, UniProt Q9Y2U5)
Method in brief: as §1

MAP4K3 = MAP4K3 (Homo sapiens, UniProt Q8IVH8)
Method in brief: as §1

MYO3A = MYO3A (Homo sapiens, UniProt Q8NEV4)
Method in brief: as §1

PAK3 = PAK3 (Homo sapiens, UniProt O75914)
Method in brief: as §1

PAK7 = target: T2, PAK7 (Homo sapiens, UniProt Q9P286)
T2 construct: gene PAK5
Method in brief: as §1

S6K1 = target: T3, S6K1 (Homo sapiens, UniProt P23443)
T3 construct: gene RPS6KB1
Method in brief: as §1

SRC = SRC (Homo sapiens, UniProt P12931)
Method in brief: as §1

TIE2 = target: T4, TIE2 (Homo sapiens, UniProt Q02763)
T4 construct: gene TEK
Method in brief: as §1

ULK2 = ULK2 (Homo sapiens, UniProt Q8IYT8)
Method in brief: as §1

p38-beta = target: T5, p38-beta (Homo sapiens, UniProt Q15759)
T5 construct: gene MAPK11
Method in brief: as §1

LCK, sequence (P06239 whole entry): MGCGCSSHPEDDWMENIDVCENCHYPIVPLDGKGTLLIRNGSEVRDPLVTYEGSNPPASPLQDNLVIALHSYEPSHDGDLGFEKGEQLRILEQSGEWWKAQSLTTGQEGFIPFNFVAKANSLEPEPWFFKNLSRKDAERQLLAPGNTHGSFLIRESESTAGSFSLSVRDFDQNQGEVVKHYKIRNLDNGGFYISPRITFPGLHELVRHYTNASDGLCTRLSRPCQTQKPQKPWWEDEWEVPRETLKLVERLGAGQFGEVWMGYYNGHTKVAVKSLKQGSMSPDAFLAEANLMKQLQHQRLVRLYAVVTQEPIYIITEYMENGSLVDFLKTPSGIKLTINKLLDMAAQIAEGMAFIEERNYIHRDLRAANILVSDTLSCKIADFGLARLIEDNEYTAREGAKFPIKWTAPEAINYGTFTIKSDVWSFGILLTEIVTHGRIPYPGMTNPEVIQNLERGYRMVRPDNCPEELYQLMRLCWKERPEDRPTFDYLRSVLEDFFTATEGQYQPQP
GRK7, sequence (Q8WTQ7 whole entry): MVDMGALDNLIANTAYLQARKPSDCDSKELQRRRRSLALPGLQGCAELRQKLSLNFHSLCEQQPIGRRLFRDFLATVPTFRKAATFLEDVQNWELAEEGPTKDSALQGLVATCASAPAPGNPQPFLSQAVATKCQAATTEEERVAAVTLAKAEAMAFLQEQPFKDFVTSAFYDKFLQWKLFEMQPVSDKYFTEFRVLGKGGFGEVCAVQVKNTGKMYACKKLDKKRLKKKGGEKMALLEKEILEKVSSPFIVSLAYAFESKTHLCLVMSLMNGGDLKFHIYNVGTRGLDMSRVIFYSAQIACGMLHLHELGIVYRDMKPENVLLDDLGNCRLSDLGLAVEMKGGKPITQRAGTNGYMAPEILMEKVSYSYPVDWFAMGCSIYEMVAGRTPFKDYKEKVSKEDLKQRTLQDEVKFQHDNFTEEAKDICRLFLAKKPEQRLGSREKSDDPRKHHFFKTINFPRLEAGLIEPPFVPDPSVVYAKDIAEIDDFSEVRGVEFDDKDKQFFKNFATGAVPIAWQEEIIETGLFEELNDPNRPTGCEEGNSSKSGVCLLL
MAP4K3, sequence (Q8IVH8 whole entry): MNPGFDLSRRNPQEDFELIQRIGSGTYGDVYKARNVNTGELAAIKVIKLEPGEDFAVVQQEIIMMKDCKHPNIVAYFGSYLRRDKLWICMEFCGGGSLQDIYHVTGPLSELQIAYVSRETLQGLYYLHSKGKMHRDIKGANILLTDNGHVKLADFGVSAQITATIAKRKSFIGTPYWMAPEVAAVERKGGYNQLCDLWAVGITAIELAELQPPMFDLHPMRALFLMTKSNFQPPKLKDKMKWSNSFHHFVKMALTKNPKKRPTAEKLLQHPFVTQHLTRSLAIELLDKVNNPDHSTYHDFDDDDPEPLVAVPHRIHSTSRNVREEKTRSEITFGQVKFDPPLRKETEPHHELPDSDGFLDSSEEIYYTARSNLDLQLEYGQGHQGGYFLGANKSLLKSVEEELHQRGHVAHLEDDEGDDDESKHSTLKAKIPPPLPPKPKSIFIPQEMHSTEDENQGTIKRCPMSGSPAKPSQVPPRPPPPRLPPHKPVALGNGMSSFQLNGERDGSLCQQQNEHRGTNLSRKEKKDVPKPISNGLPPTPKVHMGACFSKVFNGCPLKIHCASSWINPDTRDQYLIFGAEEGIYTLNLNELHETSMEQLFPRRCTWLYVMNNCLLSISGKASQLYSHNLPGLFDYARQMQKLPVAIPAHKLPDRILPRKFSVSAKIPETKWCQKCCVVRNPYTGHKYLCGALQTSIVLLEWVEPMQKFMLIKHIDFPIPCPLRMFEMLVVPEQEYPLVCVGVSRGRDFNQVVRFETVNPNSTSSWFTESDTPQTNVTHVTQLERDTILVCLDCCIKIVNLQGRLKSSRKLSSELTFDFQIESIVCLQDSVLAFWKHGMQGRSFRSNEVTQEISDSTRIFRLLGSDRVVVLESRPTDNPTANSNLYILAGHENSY
CAMK4, sequence (Q16566 whole entry): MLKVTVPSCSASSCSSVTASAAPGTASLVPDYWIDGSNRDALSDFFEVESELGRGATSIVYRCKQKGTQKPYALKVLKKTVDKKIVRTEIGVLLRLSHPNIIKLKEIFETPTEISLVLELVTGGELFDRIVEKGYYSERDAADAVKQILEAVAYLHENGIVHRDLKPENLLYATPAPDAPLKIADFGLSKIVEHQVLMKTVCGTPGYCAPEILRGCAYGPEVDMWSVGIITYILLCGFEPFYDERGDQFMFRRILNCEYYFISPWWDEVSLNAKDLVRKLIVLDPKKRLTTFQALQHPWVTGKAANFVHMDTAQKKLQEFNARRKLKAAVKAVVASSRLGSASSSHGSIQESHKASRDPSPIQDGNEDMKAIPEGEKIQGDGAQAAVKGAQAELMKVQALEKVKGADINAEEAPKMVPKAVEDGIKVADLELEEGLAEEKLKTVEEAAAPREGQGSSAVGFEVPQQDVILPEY
BMPR2, sequence (Q13873 whole entry): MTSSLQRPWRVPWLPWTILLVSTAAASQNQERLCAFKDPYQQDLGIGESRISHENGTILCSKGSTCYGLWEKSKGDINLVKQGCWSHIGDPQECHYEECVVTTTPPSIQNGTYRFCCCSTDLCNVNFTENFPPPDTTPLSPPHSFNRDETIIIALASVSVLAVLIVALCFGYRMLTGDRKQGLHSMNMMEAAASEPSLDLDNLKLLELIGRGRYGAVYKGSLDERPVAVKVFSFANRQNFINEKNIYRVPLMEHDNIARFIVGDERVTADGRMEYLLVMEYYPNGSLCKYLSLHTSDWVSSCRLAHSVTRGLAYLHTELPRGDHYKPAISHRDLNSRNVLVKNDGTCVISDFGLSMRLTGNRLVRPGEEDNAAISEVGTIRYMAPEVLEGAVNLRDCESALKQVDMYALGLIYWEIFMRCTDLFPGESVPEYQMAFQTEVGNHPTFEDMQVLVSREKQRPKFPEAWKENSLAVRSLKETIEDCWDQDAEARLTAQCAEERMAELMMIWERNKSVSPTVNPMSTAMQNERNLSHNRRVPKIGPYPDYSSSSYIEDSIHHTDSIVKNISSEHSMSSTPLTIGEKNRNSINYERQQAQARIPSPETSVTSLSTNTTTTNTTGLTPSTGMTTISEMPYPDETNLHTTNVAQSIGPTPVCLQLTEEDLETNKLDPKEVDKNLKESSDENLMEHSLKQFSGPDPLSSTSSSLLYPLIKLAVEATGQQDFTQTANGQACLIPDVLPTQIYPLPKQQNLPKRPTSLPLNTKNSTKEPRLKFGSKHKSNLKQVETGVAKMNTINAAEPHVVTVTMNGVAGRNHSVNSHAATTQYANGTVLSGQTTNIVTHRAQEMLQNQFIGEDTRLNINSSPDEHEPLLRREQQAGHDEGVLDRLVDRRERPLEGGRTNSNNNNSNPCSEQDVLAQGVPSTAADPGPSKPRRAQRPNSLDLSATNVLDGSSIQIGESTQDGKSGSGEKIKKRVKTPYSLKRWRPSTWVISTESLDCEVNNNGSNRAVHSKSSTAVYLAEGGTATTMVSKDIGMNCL
IRAK3, sequence (Q9Y616 whole entry): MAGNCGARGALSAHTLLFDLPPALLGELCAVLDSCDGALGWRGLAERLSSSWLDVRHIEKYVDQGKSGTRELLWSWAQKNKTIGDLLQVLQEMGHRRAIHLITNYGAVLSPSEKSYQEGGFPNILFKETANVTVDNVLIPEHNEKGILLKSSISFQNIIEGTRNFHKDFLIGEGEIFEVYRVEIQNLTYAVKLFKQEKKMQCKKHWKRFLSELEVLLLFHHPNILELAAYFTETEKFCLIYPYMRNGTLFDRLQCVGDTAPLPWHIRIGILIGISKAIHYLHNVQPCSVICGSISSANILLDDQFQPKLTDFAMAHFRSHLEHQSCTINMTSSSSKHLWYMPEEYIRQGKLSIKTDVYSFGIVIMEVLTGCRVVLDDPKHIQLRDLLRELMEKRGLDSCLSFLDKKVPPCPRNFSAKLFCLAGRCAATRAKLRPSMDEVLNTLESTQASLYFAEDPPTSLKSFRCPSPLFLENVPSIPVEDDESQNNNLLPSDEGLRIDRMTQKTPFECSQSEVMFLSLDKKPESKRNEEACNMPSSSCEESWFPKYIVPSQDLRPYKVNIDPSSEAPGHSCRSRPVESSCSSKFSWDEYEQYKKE
MAP3K2, sequence (Q9Y2U5 whole entry): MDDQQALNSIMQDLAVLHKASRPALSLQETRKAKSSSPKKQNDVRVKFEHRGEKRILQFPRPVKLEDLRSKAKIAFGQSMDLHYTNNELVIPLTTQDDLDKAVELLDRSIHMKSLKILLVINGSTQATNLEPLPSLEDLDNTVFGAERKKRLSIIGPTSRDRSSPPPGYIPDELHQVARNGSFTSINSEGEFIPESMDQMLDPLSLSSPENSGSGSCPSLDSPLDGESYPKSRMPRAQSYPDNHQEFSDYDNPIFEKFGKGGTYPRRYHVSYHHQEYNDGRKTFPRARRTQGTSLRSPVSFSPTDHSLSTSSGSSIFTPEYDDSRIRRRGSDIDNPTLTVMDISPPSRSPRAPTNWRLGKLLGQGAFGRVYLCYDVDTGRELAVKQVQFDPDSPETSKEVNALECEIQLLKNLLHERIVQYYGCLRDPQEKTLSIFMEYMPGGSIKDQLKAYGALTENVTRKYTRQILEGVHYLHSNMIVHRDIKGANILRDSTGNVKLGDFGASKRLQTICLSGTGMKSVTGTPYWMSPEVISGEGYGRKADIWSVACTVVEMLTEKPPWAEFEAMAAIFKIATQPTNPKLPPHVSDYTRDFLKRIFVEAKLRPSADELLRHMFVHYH
T5 sequence (Q15759 whole entry): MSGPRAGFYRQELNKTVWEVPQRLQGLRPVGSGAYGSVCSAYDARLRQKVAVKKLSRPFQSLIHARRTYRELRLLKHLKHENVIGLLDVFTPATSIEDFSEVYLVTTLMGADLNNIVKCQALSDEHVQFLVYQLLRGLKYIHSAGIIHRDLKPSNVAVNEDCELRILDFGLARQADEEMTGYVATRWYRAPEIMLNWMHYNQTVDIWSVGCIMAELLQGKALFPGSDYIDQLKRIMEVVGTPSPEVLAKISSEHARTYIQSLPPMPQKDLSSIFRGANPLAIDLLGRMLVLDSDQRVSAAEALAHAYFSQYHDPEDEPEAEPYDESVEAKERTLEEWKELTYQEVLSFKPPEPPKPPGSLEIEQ

## Cc1ncccc1Oc1sc(C(N)=O)c2c1-c1c(cnn1C)CC2 [T-474, 1-methyl-8-((2-methylpyridin-3-yl)oxy)-4,5-dihydro-1H-thieno[3,4-g]indazole-6-carboxamide]
[1]
  remaining binding at 0.3 µM: 100%
ALK(L1196M)
  remaining binding at 0.3 µM: 100%
BMPR2
  remaining binding at 0.3 µM: 99%
BTK
  remaining binding at 0.3 µM: 81%
CAMK2D
  remaining binding at 0.3 µM: 100%
CAMK4
  remaining binding at 0.3 µM: 100%
CDK9
  remaining binding at 0.3 µM: 80%
FLT3(D835H)
  remaining binding at 0.3 µM: 58%
GRK7
  remaining binding at 0.3 µM: 100%
IRAK3
  remaining binding at 0.3 µM: 96%
KIT(V559D,T670I)
  remaining binding at 0.3 µM: 100%
LCK
  remaining binding at 0.3 µM: 100%
MAP3K2
  remaining binding at 0.3 µM: 100%
MAP4K3
  remaining binding at 0.3 µM: 100%
MYO3A
  remaining binding at 0.3 µM: 100%
PAK3
  remaining binding at 0.3 µM: 100%
PAK7
  remaining binding at 0.3 µM: 100%
S6K1
  remaining binding at 0.3 µM: 100%
SRC
  remaining binding at 0.3 µM: 96%
TIE2
  remaining binding at 0.3 µM: 99%
ULK2
  remaining binding at 0.3 µM: 100%
p38-beta
  remaining binding at 0.3 µM: 64%

## O=C(/C=C/c1cnccc1-c1ccc(F)cc1)Nc1ccc(CCc2nnco2)cc1 [T-418, (2E)-3-(4-(4-fluorophenyl)pyridin-3-yl)-N-(4-(2-(1,3,4-oxadiazol-2-yl)ethyl)phenyl)acrylamide]
[1]; sheet T-418
  remaining binding at 0.3 µM: 100%
ALK(L1196M); sheet T-418
  remaining binding at 0.3 µM: 100%
BMPR2; sheet T-418
  remaining binding at 0.3 µM: 86%
BTK; sheet T-418
  remaining binding at 0.3 µM: 79%
CAMK2D; sheet T-418
  remaining binding at 0.3 µM: 100%
CAMK4; sheet T-418
  remaining binding at 0.3 µM: 78%
CDK9; sheet T-418
  remaining binding at 0.3 µM: 83%
FLT3(D835H); sheet T-418
  remaining binding at 0.3 µM: 100%
GRK7; sheet T-418
  remaining binding at 0.3 µM: 80%
IRAK3; sheet T-418
  remaining binding at 0.3 µM: 100%
KIT(V559D,T670I); sheet T-418
  remaining binding at 0.3 µM: 77%
LCK; sheet T-418
  remaining binding at 0.3 µM: 98%
MAP3K2; sheet T-418
  remaining binding at 0.3 µM: 100%
MAP4K3; sheet T-418
  remaining binding at 0.3 µM: 82%
MYO3A; sheet T-418
  remaining binding at 0.3 µM: 100%
PAK3; sheet T-418
  remaining binding at 0.3 µM: 93%
PAK7; sheet T-418
  remaining binding at 0.3 µM: 100%
S6K1; sheet T-418
  remaining binding at 0.3 µM: 100%
SRC; sheet T-418
  remaining binding at 0.3 µM: 90%
TIE2; sheet T-418
  remaining binding at 0.3 µM: 85%
ULK2; sheet T-418
  remaining binding at 0.3 µM: 100%
p38-beta; sheet T-418
  remaining binding at 0.3 µM: 77%

Source: article PMC5862592, “CDK8/19 inhibition induces premature G1/S transition and ATR-dependent cell death in prostate cancer cells” (Oncotarget, 2018)
